Patent US20180369195A1, “COMBINATION THERAPY FOR TREATMENT OF MELANOMA” (The Regents of the University of California, priority 2015, published 2018)

Key:
[1] = test system: GSK3β and Axin; assay: Western blot of β-catenin destruction complex components; format: cell-based, human; settings: melanoma cell lines, 20 μM 1-benzyl I3C
Description: Western Blot analyses of samples electrophoretically fractionated on 12% acrylamide gels were carried out as previously described (Wagle et al., J. Clin. Oncol. 2011. 29(22):3085-3096; Nguyen et al., Chem. Biol. Interact. 2010. 186(3):255-266). Enhanced chemiluminescence (ECL) Lightening reagents were used to visualize the primary antibody bound protein bands in nitrocellulose membranes and the results captured on ECL Autoradiography Film (GE Healthcare, Piscataway, N.J.). The western blots employed the following primary antibodies: mouse anti-MITF-M (Thermo-scientific), mouse anti-HSP 90 (BD Biosciences), mouse anti-CDK2, rabbit anti-CDK4, rabbit anti-CDK-6, mouse anti-rabbit BRAF, goat anti-LEF-1, rabbit anti-AXIN, mouse anti-BCL2, (Santa Cruz), rabbit anti-P21, mouse anti-Cyclin D1, rabbit anti-MEK-p, rabbit anti-MEK1/2, rabbit anti-GSK3β rabbit anti-LRP6, rabbit anti-LRP6-phospho (Cell signaling), mouse anti-β-catenin (Invitrogen).

[2] = test system: β-catenin; assay: Western blot of β-catenin; format: cell-based, human; settings: G-361, DM-738, SK-MEL-2 cells, 20 μM 1-benzyl I3C, 24, 48 and 72 hours
From the text: The western blots employed the following primary antibodies: mouse anti-MITF-M (Thermo-scientific), mouse anti-HSP 90 (BD Biosciences), mouse anti-CDK2, rabbit anti-CDK4, rabbit anti-CDK-6, mouse anti-rabbit BRAF, goat anti-LEF-1, rabbit anti-AXIN, mouse anti-BCL2, (Santa Cruz), rabbit anti-P21, mouse anti-Cyclin D1, rabbit anti-MEK-p, rabbit anti-MEK1/2, rabbit anti-GSK3β rabbit anti-LRP6, rabbit anti-LRP6-phospho (Cell signaling), mouse anti-β-catenin (Invitrogen).

[3] = test system: normal melanocytes; assay: Flow cytometry analysis of DNA content, normal melanocytes; format: cell-based; settings: varying doses of 1-benzyl I3C, 48 hours
[4] = test system: BRN2; assay: Chromatin immunoprecipitation, BRN2 at MITF-M promoter; format: cell-based, human; settings: G-361 cells, 200 μM I3C, 48 hours
Description: […] Proteins were crosslinked to DNA by the addition of formaldehyde at 2.5% of the final concentration for 5 minutes at room temperature to cultured cells. Fixation was quenched with glycine for a final concentration of 125 mmol/1 for 5 minutes. Harvested cells were sonicated and the chromatin was immunoprecipitated overnight and 15 μl of mouse anti-Brn2 antibodies (Santa Cruz Biotechnology) was added to the cell lysates to immunoprecipitate the chromatin-bound Brn2 protein. A fragment of the MITF-M promoter (−170+120) containing the BRN2 binding site (−53 to −27) was amplified using the primers—MITF-M Forward: 5′-CGTCACTTAAAAAGGTACCTTTATATTTATG-3′ (SEQ ID NO:7) MITF-M Reverse: 5′-TGT TTTAGC TAGCACCAATCCAGTGAGAGACGG-3′ (SEQ ID NO:8) by cycling 36 times (95° C., 30 s/52° C. 30 s/72° C., 30 s) with a 72° C., 10 min extension. The PCR products were electrophoretically fractionated on a 1.5% agarose gel and visualized using a transilluminator.

[5] = test system: SK-MEL-2 cells; assay: Flow cytometry analysis of DNA content, SK-MEL-2; format: cell-based, human; settings: all tested concentrations of I3C
Description: Melanoma cells were treated with the indicated concentrations of 1-benzyl […] in triplicates every 24 hours and harvested at the end of 24, 48 or 72 hours for cell cycle analysis. The DNA content of propidium iodide stained nuclei from harvested cells were determined by flow cytometry. Briefly, cells were hypotonically lysed in […] of DNA staining solution (0.5 mg/mL propidium iodide, 0.1% sodium citrate, and 0.05% Triton-X 100). Emitted fluorescence from the nuclear of wavelengths more than 585 nm was measured with a Coulter Elite instrument with laser output adjusted to deliver 15 mW at 488 nm. Ten thousand nuclei were analyzed from each sample at a rate of 300-500 nuclei/second. The percentage of cells within the G1, S, and G2/M phases of the cell cycle were determined by analysis with the Multicycle computer program provided by Phoenix Flow Systems in the Cancer Research Laboratory Microchemical Facility of the University of California, Berkeley.

[6] = test system: phosphorylated Erk/MAPK; assay: Immunofluorescence of tumor xenograft sections for ERK-p; format: in vivo, human; settings: I3C treated vs untreated animals
Description: Approximately 1 million G361 melanoma cells in a total volume of 0.1 ml of Matrigel were injected subcutaneously into each lateral flank of NIH III athymic nude mice. The resulting tumors were allowed to grow to a mean starting volume of 146±10 mm^3. The animals were then randomized into two groups; a vehicle control group that was treated with DMSO and an […] treated group that were injected daily with 200 mg/kg body weight of […]. The resulting tumor volumes were measured every other day for four weeks using calipers. The tumor volumes were calculated using the standard formula: […], and changes in tumor volumes were calculated using the formula: 100+{(Tf-Ti)/Ti×100}, where Tf is the final mean tumor volume and Ti is the initial mean tumor volume. At terminal sacrifice, tumor xenografts were harvested, and a portion of each tumor was fixed in 4% para-formaldehyde for 1 hour at room temperature, followed by a phosphate-buffered saline (PBS) wash and subsequently immersed in 3% sucrose overnight at 4° C. The resulting tissues were embedded in OCT and 10 μm thin sections were taken for immunofluorescence studies.

[7] = test system: phosphorylated Erk/MAPK; assay: Western blot of phosphorylated Erk/MAPK; format: cell-based, human; settings: 200 μM I3C
Description: Western Blot analyses of samples electrophoretically fractionated on 12% acrylamide gels were carried out as previously described (Wagle et al., J. Clin. Oncol. 2011. 29(22):3085-3096; Nguyen et al., Chem. Biol. Interact. 2010. 186(3):255-266). […] The western blots employed the following primary antibodies: mouse anti-MITF-M (Thermo-scientific), mouse anti-HSP 90 (BD Biosciences), mouse anti-CDK2, rabbit anti-CDK4, rabbit anti-CDK-6, mouse anti-rabbit BRAF, goat anti-LEF-1, rabbit anti-AXIN, mouse anti-BCL2, (Santa Cruz), rabbit anti-P21, mouse anti-Cyclin D1, rabbit anti-MEK-p, rabbit anti-MEK1/2, rabbit anti-GSK3β rabbit anti-LRP6, rabbit anti-LRP6-phospho (Cell signaling), mouse anti-β-catenin (Invitrogen).

[8] = test system: RPMI-7951 cells; assay: CCK-8 proliferation assay, RPMI-7951; format: cell-based, human; settings: 200 μM I3C, 72 hours; BRAF-V600E
Description: Cells were treated with 20 μM 1-benzyl I3C every 24 hours for 72 hours and harvested at 24, 48 and 72 hours for western blot and flow cytometric analysis. […] Subsequently inhibition of proliferation was assessed using Cell counting Kit-8 (Dojindo) as per the protocol in the user's manual. Briefly, 50 μl of the CCK-8 solution was added to each well along with 450 μl media and incubated for 2-3 hours. The absorbance was read at 450 nm and % inhibition was calculated for each condition standardizing DMSO to zero using the formula: [(100−Value of treatment/Value of DMSO treated control)×100]

[9] = test system: cultured human cancer cells; settings: Wong et al. 1997; cited from earlier work
[10] = test system: BRN2; assay: Immunofluorescence of BRN2 localization; format: cell-based, human; settings: G-361 cells, 200 μM I3C, 48 hours

Row | Structure (SMILES) | GSK3β and Axin levels [1] | β-catenin protein levels [2] | G1 cell cycle arrest [3] | endogenous BRN2 binding to the MITF-M promoter [4] | G1 cell cycle arrest [5] | level of phosphorylated Erk/MAPK in tumor xenografts [6] | phosphorylated Erk/MAPK levels ([7]; G-361 and DM738 cells, 72 hour time course) | phosphorylated Erk/MAPK levels ([7]; G-361 cells, 48 hours, 10 μM Vemurafenib or 10 μM U0126) | phosphorylated Erk/MAPK levels ([7]; SK-MEL-2 cells, 72 hour time course) | sensitivity to anti-proliferative effects [8] | optimal concentration for the anti-proliferative effect [9] | nuclear localization of BRN2 [10]
1 | OCc1cn(Cc2ccccc2)c2ccccc12 [1-benzyl I3C, 1-benzyl indole-3-carbinol] | upregulation | significantly downregulated | no comparable effect on normal melanocytes | – | – | – | – | – | – | – | – | –
2 | OCc1c[nH]c2ccccc12 [I3C, indole-3-carbinol] | – | – | – | significantly down regulated endogenous BRN-2 interactions with this promoter | remained in a rapidly proliferating state | strongly down regulated | strongly down regulated | down regulated | no effect | Most sensitive | 200 µM | disrupted the nuclear localization of Brn2
